Results on one compound are retold here after patent publication US20130040935A1, “CYCLIC KETO-ENOLS FOR THERAPY” (BAYER INTELLECTUAL PROPERTY GMBH, priority 2010, published 2013).

The target in assay [1] is T1, human ACC1 (acetyl-coenzyme A carboxylase alpha transcript variant 1) (Homo sapiens, UniProt Q13085).
T1 construct: FLAG (C); made in house; host or cells: baculovirus-infected insect cells (Hi5)
In words: Human ACC1 enzyme assay, Assay B1 (ADP-Glo). Format: biochemical.

In assay [2] the test system is malonyl-CoA in a tumour (human MCF-7 breast cancer cells). In words: Mode-of-action experiment: intratumour malonyl-CoA in MCF-7 tumours after oral administration. Format: in vivo, female nude mice (NMRI-nude (nu/nu)). To be noted: Mus musculus, MCF7, po; after 7 h, 10 mg/kg, vs Vehicle. As to the method:
Mode-of-Action Experiment
Prior to the determination of the activity in the MCF-7 model, some of the test substances were examined in a “mode of action” experiment. The principle of this experiment is that short-term application of a test substance capable of inhibiting ACC1 and/or ACC2 in a living organism after oral administration reduces malonyl-CoA in a tumour. To this end, in the experiment 2 million human MCF-7 breast cancer cells were injected subcutaneously into female nude mice (NMRI-nude (nu/nu) mice, Taconic M&B A/S, 1 day beforehand administration of a pellet for the release of oestrogen over a period of at least 60 days). Once the tumour extended to an area of about 60-70 mm^2, the test substance was administered orally over a period of 1-3 days, and at defined points in time the intratumour content of malonyl-CoA was then determined and compared to the vehicle control. The method is described in Anal Chem 2008 Aug. 1; 80(15):5736-42. Epub 2008 Jul. 9.).

In a further assay the test system is MDA-MB-435. In words: Cell proliferation assay (CellTiter-Glo, 96 h), MDA-MB-435. Format: cell-based. To be noted: Homo sapiens, 96-hour incubation. As to the method: (§1) In accordance with the invention, the substances were tested in cell-based assays for the ability of the substances of inhibiting tumour cell proliferation after a 96-hour incubation with the substance. Cell viability was tested using the CellTiter-Glo® luminescent cell viability assay (Promega). The cells were sown at a density of 2000-5000 cells/well (depending on the cell line) in 100 μl growth medium on 96-well microtitre plates. For each cell line examined, cells were sown on a separate plate to determine the luminescence at t=0 hours and t=96 hours. After overnight incubation at 37° C., the luminescence values for the t=0 samples were determined. The dose plates for the t=96 hours points in time were treated with substances diluted with growth medium. The cells were then incubated at 37° C. for 96 hours, and the luminescence values for the t=96 hours sample were then determined. For data analysis, the t=0 values were subtracted from the t=96 hour values for treated and untreated samples. The differences in luminescence in percent between substance-treated samples and control values were used to determine the growth inhibition in percent.
(§2) The substances were tested in the following cell lines which represent the stated indications in an exemplary manner: […]

A further assay deals with 786 O. In words: Cell proliferation assay (CellTiter-Glo, 96 h), 786 O. Format: cell-based. As to conditions: Homo sapiens, 786-0; 96-hour incubation. As to the method: as §1, §2
In the next assay the test system is PLC/PRF5. In words: Cell proliferation assay (CellTiter-Glo, 96 h), PLC/PRF5. Format: cell-based. As to conditions: Homo sapiens, PLC-PRF-5; 96-hour incubation. As to the method: as §1, §2
The next assay concerns NCI-H2135. In words: Cell proliferation assay (CellTiter-Glo, 96 h), NCI-H2135. Format: cell-based. As to conditions: 96-hour incubation; read-out: NCLH 2135 IC50. As to the method:
as §1, §2
On the technique in general: In ATP-based viability assays light output follows the ATP content of the culture.

A further assay relates to DLD1. In words: Cell proliferation assay (CellTiter-Glo, 96 h), DLD1. Type of assay: cell-based. As to conditions: Homo sapiens, DLD-1; 96-hour incubation. As to the method:
as §1, §2

For the next assay, the system named is PC3. In words: Cell proliferation assay (CellTiter-Glo, 96 h), PC3. Type of assay: cell-based. As to conditions: Homo sapiens, PC-3; 96-hour incubation. As to the method: as §1, §2
The next assay concerns Du145. In words: Cell proliferation assay (CellTiter-Glo, 96 h), Du145. To be noted: Homo sapiens, DU-145; 96-hour incubation. Format: cell-based. As to the method: as §1, §2
The next assay concerns ECC1. In words: Cell proliferation assay (CellTiter-Glo, 96 h), ECC1. As to conditions: Homo sapiens, ECC-1; 96-hour incubation. Type of assay: cell-based. As to the method:
as §1, §2

In a further assay the test system is KM12. In words: Cell proliferation assay (CellTiter-Glo, 96 h), KM12. Type of assay: cell-based. As to conditions: Homo sapiens, 96-hour incubation. As to the method:
as §1, §2

Assay [3] addresses human ACC2 (acetyl-coenzyme A carboxylase 2) (Homo sapiens, UniProt O00763). In words: Human ACC2 enzyme assay, Assay B2 (ADP-Glo).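 Note: human ACC2 activity read as ADP product, detected by luciferase glow luminescence after residual ATP removal, enzyme near 2 ng/µl in linear range, detection steps at 22 °C.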 On the technique in general: ADP-Glo first removes unused ATP, then detects ADP through luciferase.
Protocol: The hACC2-inhibitory action of the substances of the present invention was measured in the hACC2 assay described in the paragraphs below.
Essentially, the enzyme activity is measured by quantifying the adenosine diphosphate (ADP) formed as a byproduct of the enzyme reactions using the ADP-Glo™ detection system from Promega. In this test, initially the adenosine triphosphate (ATP) not consumed in the enzyme reaction is converted quantitatively with an adenylate cyclase (“ADP-GLO reagent”) into cAMP, the adenylate cyclase is then stopped and (“kinase detection reagent”) the ADP formed is subsequently converted into ATP, which is converted in a luciferase-based reaction into a glow luminescence signal.
The concentration of the hACC2 was adapted to the respective activity of the enzyme and adjusted such that the assay operated in the linear range. Typical concentrations were in the range of 2 ng/μl. […] The amount of light emitted was taken as a measure for the amount of ADP formed and thus for the enzyme activity of the hACC2.

What is called IC50 is the concentration that inhibits the measured activity by half. By inhibition in vivo is commonly meant the drop in the measured response relative to a control, in per cent. A high value points to a response far below the control.

Chain of human ACC2 (acetyl-coenzyme A carboxylase 2) (O00763 27-2458 limits assumed): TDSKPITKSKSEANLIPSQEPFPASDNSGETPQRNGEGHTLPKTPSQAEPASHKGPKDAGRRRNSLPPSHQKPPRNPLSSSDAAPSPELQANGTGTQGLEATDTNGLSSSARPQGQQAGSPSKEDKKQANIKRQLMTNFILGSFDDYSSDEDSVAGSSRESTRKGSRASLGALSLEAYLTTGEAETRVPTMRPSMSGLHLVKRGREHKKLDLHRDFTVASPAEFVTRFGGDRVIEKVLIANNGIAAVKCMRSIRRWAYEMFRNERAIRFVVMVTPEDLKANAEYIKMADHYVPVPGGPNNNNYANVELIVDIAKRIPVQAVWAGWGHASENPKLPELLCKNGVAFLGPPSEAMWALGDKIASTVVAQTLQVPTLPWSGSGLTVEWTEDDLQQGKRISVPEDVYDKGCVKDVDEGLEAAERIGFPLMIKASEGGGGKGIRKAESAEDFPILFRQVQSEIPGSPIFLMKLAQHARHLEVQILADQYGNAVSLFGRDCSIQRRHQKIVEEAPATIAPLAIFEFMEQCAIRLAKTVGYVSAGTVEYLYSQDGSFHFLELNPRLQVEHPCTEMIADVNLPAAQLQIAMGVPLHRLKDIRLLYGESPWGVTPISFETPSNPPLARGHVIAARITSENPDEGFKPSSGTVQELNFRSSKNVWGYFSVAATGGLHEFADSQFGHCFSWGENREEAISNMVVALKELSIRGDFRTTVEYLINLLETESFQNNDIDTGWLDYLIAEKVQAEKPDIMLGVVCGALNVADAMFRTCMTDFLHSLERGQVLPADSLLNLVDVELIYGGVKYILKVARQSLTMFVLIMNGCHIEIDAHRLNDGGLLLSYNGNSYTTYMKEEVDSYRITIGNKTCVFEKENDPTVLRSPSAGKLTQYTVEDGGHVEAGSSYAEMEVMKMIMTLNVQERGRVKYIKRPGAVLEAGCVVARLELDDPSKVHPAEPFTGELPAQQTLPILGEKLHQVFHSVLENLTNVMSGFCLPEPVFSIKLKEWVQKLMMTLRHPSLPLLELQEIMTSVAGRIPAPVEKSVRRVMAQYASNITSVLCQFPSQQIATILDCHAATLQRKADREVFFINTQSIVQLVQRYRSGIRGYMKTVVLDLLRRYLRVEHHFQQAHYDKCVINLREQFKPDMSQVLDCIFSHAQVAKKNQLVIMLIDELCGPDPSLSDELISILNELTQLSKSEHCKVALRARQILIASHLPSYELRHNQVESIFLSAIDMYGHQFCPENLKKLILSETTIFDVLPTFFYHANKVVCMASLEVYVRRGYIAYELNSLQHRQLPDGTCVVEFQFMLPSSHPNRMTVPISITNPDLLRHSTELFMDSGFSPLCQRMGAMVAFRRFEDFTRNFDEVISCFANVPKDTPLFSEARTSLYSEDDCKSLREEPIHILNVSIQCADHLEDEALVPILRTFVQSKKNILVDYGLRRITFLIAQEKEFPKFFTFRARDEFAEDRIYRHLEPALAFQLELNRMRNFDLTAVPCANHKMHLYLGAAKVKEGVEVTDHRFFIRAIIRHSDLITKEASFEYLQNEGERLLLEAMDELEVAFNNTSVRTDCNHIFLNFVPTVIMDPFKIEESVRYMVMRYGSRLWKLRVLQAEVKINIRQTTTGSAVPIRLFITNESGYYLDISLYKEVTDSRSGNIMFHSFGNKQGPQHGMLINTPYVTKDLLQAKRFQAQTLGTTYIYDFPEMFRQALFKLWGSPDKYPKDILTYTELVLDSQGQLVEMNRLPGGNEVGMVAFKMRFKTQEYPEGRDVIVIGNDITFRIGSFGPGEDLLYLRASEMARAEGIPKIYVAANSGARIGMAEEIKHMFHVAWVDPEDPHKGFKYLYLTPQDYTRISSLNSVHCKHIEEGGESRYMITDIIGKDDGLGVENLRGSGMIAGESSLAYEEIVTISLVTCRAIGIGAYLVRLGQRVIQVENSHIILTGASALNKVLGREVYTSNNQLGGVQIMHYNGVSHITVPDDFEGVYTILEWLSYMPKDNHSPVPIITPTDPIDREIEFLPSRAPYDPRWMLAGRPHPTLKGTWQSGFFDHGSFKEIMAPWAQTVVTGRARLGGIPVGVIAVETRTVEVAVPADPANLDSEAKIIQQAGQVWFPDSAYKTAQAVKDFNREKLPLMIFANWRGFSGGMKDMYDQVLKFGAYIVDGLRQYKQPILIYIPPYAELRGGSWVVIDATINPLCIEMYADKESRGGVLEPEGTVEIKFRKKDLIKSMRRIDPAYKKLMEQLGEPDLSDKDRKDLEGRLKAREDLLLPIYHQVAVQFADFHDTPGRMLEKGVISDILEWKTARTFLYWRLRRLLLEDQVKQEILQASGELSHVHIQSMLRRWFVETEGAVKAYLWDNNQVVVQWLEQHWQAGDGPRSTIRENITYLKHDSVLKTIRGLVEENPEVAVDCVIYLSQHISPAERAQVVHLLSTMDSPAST

As to `Cc1ccc(-c2ccc(Cl)cc2)cc1C1=C(O)C2(CCCCC2)NC1=O` [1-77, 3-(4′-chloro-4-methylbiphenyl-3-yl)-4-hydroxy-1-azaspiro[4.5]dec-3-en-2-one], the IC50 in assay [1] was 0.278 µM; with MDA-MB-435, 0.14 µM; in the assay on 786 O, 0.404 µM; in the assay on PLC/PRF5, 3.89 µM; in the assay with NCI-H2135, 0.033 µM; with DLD1 it was 0.875 µM. In addition, the concentration for half-maximal inhibition (IC50) in the assay with PC3 was 0.031 µM; in the assay on Du145, 0.051 µM; in the assay on ECC1, 0.257 µM; in the assay on KM12 it was 0.08 µM; in assay [3], 2.59 µM. In assay [2], the inhibition in vivo at 10 mg/kg stood at 96%.
